Source: patent US10709745B2, “Tropic cell based virotherapy for the treatment of cancer” (priority 2013, dated 2020)

Tests used:
HB1.F3-CD = test: TMZ IC50 with simultaneous XRT; type: cell-based; details: Homo sapiens; treated with XRT (2 Gy) simultaneously
Method: For all studies, the cells and mice received XRT in accordance with the University of Chicago's radiation safety guidelines and protocols. All cells received a single dose of 2 Gy XRT. For animal studies, 10 Gy fractioned dose radiotherapy (2 Gy for 5 consecutive days) was used. The animals were irradiated with a lead cover shielding their entire body, with only their heads exposed. […] For in vivo studies, the mice received 2.5, 5, 10, or 30 mg/kg TMZ via intraperitoneal injection.
NSCs have an inherent pathotropism toward glioma, which is critical for their utility as cell carriers. Therefore, it is critical that such intrinsic molecular properties and phenotypes of NSCs are maintained during radio-chemotherapy (XRT-TMZ). […] Oct4, a marker of self-renewal for undifferentiated cells, was expressed in 87.6±1.1% of the loaded NSCs. […] The percentage of Oct4 positive cells decreased to 81±2% (*, p<0.05), whereas the MFI was not reduced. […] Because of the high priority of safety when working with the undifferentiated v-myc immortalized HB1.F3-CD stem cell line (Kim et al. 2008), an in vivo safety monitoring experiment was performed to test the effect of XRT-TMZ on loaded HB1.F3-CD cellular transformation. CRAd-S-pk7-loaded NSCs were implanted in the brains of nude mice with no tumor burden. […]

NSCs (HB1.F3-CD) = test: CRAd-S-pk7 replication in NSCs treated with XRT-TMZ (E1A qPCR, titer); type: cell-based, human; details: day 4; TMZ 100 µM
Method: FIGS. 41A, 41B and 41C show evaluation of CRAd-Survivin-pk7 (CRAd-S-pk7) replication in neural stem cells (NSCs) treated with XRT-TMZ according to one embodiment. Viral replication of CRAd-S-pk7 was measured by quantitative real-time polymerase chain reaction and presented as a number of viral E1A copies per nanogram of DNA from infected NSCs. (FIG. 41A, 41B): Viral replication was evaluated daily up to 96 hours after treatment with 0, 10, 50, or 100 µM TMZ (FIG. 41A) and 0, 2, or 4 Gy of XRT (FIG. 41B). (FIG. 41C): CRAd-S-pk7 viral titer levels 96 hours after XRT-TMZ treatment of infected NSCs. […] Abbreviations: DMSO, dimethyl sulfoxide; IU, infectious units; TMZ, temozolomide; XRT, radiation therapy.
To detect the level of viral replication, NSCs were infected with 50 IU of CRAd-S-pk7 and treated with XRT-TMZ. […] Adenoviral E1A gene expression was quantified via qRTPCR using iQ SYBR Green supermix (Bio-Rad, Hercules, Calif., http://www.bio-rad.com), using primers and protocol previously described (Sonabend et al. 2009). The quantification of infectious viral progeny of NSCs was conducted using the Adeno-X rapid titer kit protocol (Clontech, Mountain View, Calif., http://www.clontech.com) as described elsewhere (Thaci et al. 2012). The titration unit (IU/ml) values quantified through this protocol are similar to plaque-forming units. […]

[1] = human, in vivo; cited from earlier work

Question: What does the source list for Cn1nnc2c(C(N)=O)ncn2c1=O [TMZ, temozolomide]?
Answer: IC50 (HB1.F3-CD): 15 µM; decrease in E1A copies per nanogram of DNA (NSCs (HB1.F3-CD)): 3 fold; intratumoral concentration (likely range) [1]: 5 to 50 µM; peak concentration in patient's blood [1]: 50 µmol/L; peak concentration in the cerebral spinal fluid [1]: 5 µmol/L
